Assay: In vitro release of methylprednisolone acetate into 50 wt % aqueous ethanol
Assay type: physicochemical
Settings: unencapsulated, 37° C., 120 cycles/min
Experimental: The in vitro release of methylprednisolone acetate from microparticles into a receiving fluid comprising 50 wt % of aqueous ethanol maintained at 37° C. was measured.
Triplicate samples of 20 mg of microparticles were weighed and each sample was placed in an 8-oz bottle containing 150 mL of 50 wt % aqueous ethanol. […] Next, the bottles were sealed with a thin sheet of Teflon and a screw cap to prevent evaporation. The bottles were then placed in an Eberbach shaker bath oscillating at 120 cycles/min and maintained at 37° C. The amount of drug released from the microparticles as a function of time was measured by determining the absorbance of the aqueous ethanol receiving fluid at 247 nm and by using the following equation based on Beer's Law.
wherein C is the concentration of methylprednisolone acetate in g/ml.

With `CC(=O)OCC(=O)[C@@]1(O)CC[C@H]2[C@@H]3C[C@H](C)C4=CC(=O)C=C[C@]4(C)[C@H]3[C@@H](O)C[C@@]21C` the “time to complete dissolution” value was 30 min.

From patent publication US4542025A, “Injectable, long-acting microparticle formulation for the delivery of anti-inflammatory agents” (priority 1984, dated 1985)
